Measured values taken from PubChem BioAssay AID330 (DTP/NCI, 2004).
Values joined by “and” are separate entries in the source; they are usually repeats but may differ in a detail not shown here. Equal values may be shown once. Toxic doses and inconclusive results are not listed. The calls were made as follows: active = survival T/C of 150% or more; inactive = T/C below 125% in these data.

System: P388 leukemia ip, CD2F1 mice, survival T/C
Assay: NCI In Vivo Anticancer Drug Screen. Data for tumor model P388 Leukemia (intraperitoneal) in CD2F1 (CDF1) mice
Settings: endpoint: median survival time, higher = longer survival
Method in brief: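 Mice carrying the transplanted tumor received test compound or vehicle. Survival was recorded in each group, and the value is the treated-group measurement divided by that of the vehicle-treated control group.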

[1] = dose: 50.0 mg/kg/injection, schedule: Q04DX002 (ip), vehicle: saline
[2] = dose: 50.0 mg/kg/injection, schedule: Q01DX005 (ip), vehicle: saline
[3] = dose: 100.0 mg/kg/injection, schedule: Q01DX005 (ip), vehicle: saline
[4] = dose: 50.0 mg/kg/injection, schedule: Q01DX005 (ip), vehicle: saline with Tween-80
[5] = dose: 100.0 mg/kg/injection, schedule: Q01DX005 (ip), vehicle: saline with Tween-80
[6] = dose: 50.0 mg/kg/injection, schedule: Q01DX009 (ip), vehicle: saline with Tween-80
[7] = dose: 60.0 mg/kg/injection, schedule: Q01DX005 (ip), vehicle: saline
[8] = dose: 120.0 mg/kg/injection, schedule: Q01DX005 (ip), vehicle: saline
[9] = dose: 240.0 mg/kg/injection, schedule: Q01DX005 (ip), vehicle: saline
[10] = dose: 100.0 mg/kg/injection, schedule: Q04DX003 (ip), vehicle: saline with Tween-80
[11] = dose: 200.0 mg/kg/injection, schedule: Q04DX003 (ip), vehicle: saline with Tween-80
[12] = dose: 400.0 mg/kg/injection, schedule: Q04DX003 (ip), vehicle: saline with Tween-80
[13] = dose: 12.5 mg/kg/injection, schedule: Q01DX009 (ip), vehicle: saline with Tween-80
[14] = dose: 25.0 mg/kg/injection, schedule: Q01DX009 (ip), vehicle: saline with Tween-80
[15] = dose: 12.5 mg/kg/injection, schedule: Q01DX009 (ip), vehicle: Klucel (hydroxypropylcellulose) (HPC)
[16] = dose: 25.0 mg/kg/injection, schedule: Q01DX009 (ip), vehicle: Klucel (hydroxypropylcellulose) (HPC)
[17] = dose: 50.0 mg/kg/injection, schedule: Q01DX009 (ip), vehicle: Klucel (hydroxypropylcellulose) (HPC)
[18] = dose: 100.0 mg/kg/injection, schedule: Q01DX009 (ip), vehicle: Klucel (hydroxypropylcellulose) (HPC)

Measured: T/C

CCC(C)CN1CCc2c(c3c(c(OC)c2OC)CCC3)C1 (centres undefined)
inactive: [1] 101 % of control | dose: 100.0 mg/kg/injection, schedule: Q04DX002 (ip), vehicle: saline 102 % of control | dose: 200.0 mg/kg/injection, schedule: Q04DX002 (ip), vehicle: saline 96 % of control

Cc1cc(N=Nc2ccc(NC(=O)c3ccc(N)cc3)cc2C)ccc1N=Nc1ccc2c(O)c(N=Nc3ccc(S(=O)(=O)O)cc3)c(S(=O)(=O)O)cc2c1
inactive: dose: 12.5 mg/kg/injection, schedule: Q01DX005 (ip), vehicle: saline 100 % of control | dose: 25.0 mg/kg/injection, schedule: Q01DX005 (ip), vehicle: saline 105 % of control | [2] 105 % of control and 108 % of control | [3] 103 % of control

O=C(O)c1ccc(N=Cc2ccc3c(c2)OCO3)cc1
inactive: dose: 25.0 mg/kg/injection, schedule: Q04DX003 (ip), vehicle: saline 100 % of control | dose: 50.0 mg/kg/injection, schedule: Q04DX003 (ip), vehicle: saline 102 % of control | dose: 100.0 mg/kg/injection, schedule: Q04DX003 (ip), vehicle: saline 96 % of control | dose: 200.0 mg/kg/injection, schedule: Q04DX003 (ip), vehicle: saline 94 % of control

O=C1C=CC(=Nc2ccc3c(c2)C(=O)c2ccccc2-3)O1
inactive: [4] 111 % of control | [5] 115 % of control

O=C(c1ccccc1)c1ccccc1-c1ccccc1C(=O)c1ccccc1
inactive: [6] 102 % of control | dose: 100.0 mg/kg/injection, schedule: Q01DX009 (ip), vehicle: saline with Tween-80 92 % of control | dose: 200.0 mg/kg/injection, schedule: Q01DX009 (ip), vehicle: saline with Tween-80 87 % of control

N/C(=N\OC(=O)Nc1ccccc1)c1ccccc1
inactive: dose: 60.0 mg/kg/injection, schedule: Q01DX005 (ip), vehicle: saline with Tween-80 97 % of control | dose: 120.0 mg/kg/injection, schedule: Q01DX005 (ip), vehicle: saline with Tween-80 94 % of control | dose: 240.0 mg/kg/injection, schedule: Q01DX005 (ip), vehicle: saline with Tween-80 91 % of control

C#CCCCOC1CCCCO1 (centres undefined)
inactive: [7] 100 % of control | [8] 100 % of control | [9] 100 % of control

O=[N+]([O-])CCCN=NN1CCCCC1
inactive: dose: 12.5 mg/kg/injection, schedule: Q04DX002 (ip), vehicle: saline 104 % of control | dose: 25.0 mg/kg/injection, schedule: Q04DX002 (ip), vehicle: saline 107 % of control | [1] 103 % of control

N/C(=N/O)NO
inactive: [2] 112 % of control and 113 % of control | [3] 122 % of control

CN1C2CCC1C(C(=O)O)C(O)C2 (centres undefined)
inactive: dose: 100.0 mg/kg/injection, schedule: Q04DX002 (ip), vehicle: saline with Tween-80 101 % of control | dose: 200.0 mg/kg/injection, schedule: Q04DX002 (ip), vehicle: saline with Tween-80 96 % of control | dose: 400.0 mg/kg/injection, schedule: Q04DX002 (ip), vehicle: saline with Tween-80 92 % of control

CCOC(=O)c1c(N)sc2c1CCCC2
inactive: dose: 50.0 mg/kg/injection, schedule: Q04DX003 (ip), vehicle: saline with Tween-80 101 % of control | dose: 100.0 mg/kg/injection, schedule: Q01DX001 (ip), vehicle: saline sonified 100 % of control | [10] 108 % of control | dose: 200.0 mg/kg/injection, schedule: Q01DX001 (ip), vehicle: saline sonified 100 % of control | [11] 105 % of control | dose: 400.0 mg/kg/injection, schedule: Q01DX001 (ip), vehicle: saline sonified 100 % of control | [12] 101 % of control

S=C(N=Nc1ccccc1)NNc1ccccc1
inactive: [13] 100 % of control | [14] 95 % of control | [6] 90 % of control | [10] 90 % of control | [11] 86 % of control | [12] 100 % of control

CC1=CC(C)=C(C#N)C2=S=C(c3ccccc3)C(=O)N12
inactive: dose: 6.25 mg/kg/injection, schedule: Q01DX005 (ip), vehicle: saline with Tween-80 97 % of control | dose: 12.5 mg/kg/injection, schedule: Q01DX005 (ip), vehicle: saline with Tween-80 94 % of control | dose: 25.0 mg/kg/injection, schedule: Q01DX005 (ip), vehicle: saline with Tween-80 94 % of control | [5] 88 % of control | dose: 200.0 mg/kg/injection, schedule: Q01DX005 (ip), vehicle: saline with Tween-80 88 % of control

CC1(C)C(=O)N(Br)C(=O)N1Br
inactive: [15] 101 % of control | [16] 99 % of control | [17] 99 % of control | [18] 90 % of control

O=c1oc2c(Br)cccc2cc1-c1ccc(Br)c2ccccc12
inactive: [17] 101 % of control | [18] 97 % of control | dose: 200.0 mg/kg/injection, schedule: Q01DX009 (ip), vehicle: Klucel (hydroxypropylcellulose) (HPC) 93 % of control

Clc1ccc(OCC(COc2ccc(Cl)cc2)(COc2ccc(Cl)cc2)COc2ccc(Cl)cc2)cc1
inactive: dose: 7.5 mg/kg/injection, schedule: Q01DX009 (ip), vehicle: saline with Tween-80 99 % of control | dose: 15.0 mg/kg/injection, schedule: Q01DX009 (ip), vehicle: saline with Tween-80 104 % of control | dose: 30.0 mg/kg/injection, schedule: Q01DX009 (ip), vehicle: saline with Tween-80 95 % of control

O=C(Nc1ccc(Cl)cc1)Nc1nnc(Cc2ccc(Cl)cc2)o1
inactive: [4] 99 % of control | [5] 87 % of control

CSc1cnc(N)s1
inactive: [15] 108 % of control | [16] 115 % of control | [17] 100 % of control | [18] 104 % of control

CC(C)C(=NN/C=N/S(C)(=O)=O)C(C)C
inactive: dose: 25.0 mg/kg/injection, schedule: Q01DX001 (ip), vehicle: Klucel (hydroxypropylcellulose) (HPC) 92 % of control | dose: 50.0 mg/kg/injection, schedule: Q01DX001 (ip), vehicle: Klucel (hydroxypropylcellulose) (HPC) 112 % of control | dose: 100.0 mg/kg/injection, schedule: Q01DX001 (ip), vehicle: Klucel (hydroxypropylcellulose) (HPC) 97 % of control

COC(=O)c1nc2[nH]n(-c3ccccc3)c(=O)c2c2c1CCCCCCCCCC2
inactive: [7] 102 % of control | [8] 96 % of control | [9] 96 % of control

Nc1cccnc1N
inactive: dose: 2.5 mg/kg/injection, schedule: Q01DX009 (ip), vehicle: saline 98 % of control | dose: 3.12 mg/kg/injection, schedule: Q01DX009 (ip), vehicle: saline 106 % of control | dose: 5.0 mg/kg/injection, schedule: Q01DX009 (ip), vehicle: saline 98 % of control | dose: 6.25 mg/kg/injection, schedule: Q01DX009 (ip), vehicle: saline 106 % of control | dose: 10.0 mg/kg/injection, schedule: Q01DX009 (ip), vehicle: saline 105 % of control | dose: 12.5 mg/kg/injection, schedule: Q01DX009 (ip), vehicle: saline 92 % of control and 93 % of control | dose: 20.0 mg/kg/injection, schedule: Q01DX009 (ip), vehicle: saline 101 % of control

NCc1ccccc1Br
inactive: dose: 50.0 mg/kg/injection, schedule: Q01DX005 (ip), vehicle: distilled water + alcohol 101 % of control | dose: 100.0 mg/kg/injection, schedule: Q01DX005 (ip), vehicle: distilled water + alcohol 100 % of control | dose: 200.0 mg/kg/injection, schedule: Q01DX005 (ip), vehicle: distilled water + alcohol 103 % of control

COC(=O)C(C#N)=C(SC)SC
inactive: [13] 112 % of control | [14] 116 % of control | [6] 103 % of control and 91 % of control

CCOC(=O)Nc1cc2c(c(N)n1)N=C(c1ccccc1)CS2
inactive: dose: 75.0 mg/kg/injection, schedule: Q01DX005 (ip), vehicle: Klucel (hydroxypropylcellulose) (HPC) 100 % of control | dose: 150.0 mg/kg/injection, schedule: Q01DX005 (ip), vehicle: Klucel (hydroxypropylcellulose) (HPC) 95 % of control | dose: 300.0 mg/kg/injection, schedule: Q01DX005 (ip), vehicle: Klucel (hydroxypropylcellulose) (HPC) 97 % of control

C=C(Br)C(=O)N1CCCC1C(=O)NC (centres undefined)
inactive: dose: 25.0 mg/kg/injection, schedule: Q01DX009 (ip), vehicle: saline 110 % of control | dose: 50.0 mg/kg/injection, schedule: Q01DX009 (ip), vehicle: saline 91 % of control | dose: 100.0 mg/kg/injection, schedule: Q01DX009 (ip), vehicle: saline 98 % of control
